In US5980935A, “Cationic lipids and methods of use therefor” (priority 1996, dated 1999):

Tests used:
KB31 cells [1] = experiment: Delivery of bacterial plasmid pUC-CMVLUC into KB31 cells, luciferase reporter expression (Table 1); type: cell-based, human; conditions: KB cells, pUC-CMVLUC 1 microgram, 7 h; maximum over a range of plasmid/lipid ratios
Description: (§1) These materials were used as supplied from the manufacturer. DOTAP-DOPE 1:1 was prepared from the mixture (1:1 by weight) of 1,2 dioleoyloxy-3-trimethylammoniopropane (DOTAP, Avanti PolarLipids, USA) and DOPE by dissolving in distilled water at the concentration 2 mg/ml. DDAB-DOPE 1:2.5 (also known as LipofectACE®, Gibco BRL, USA) was prepared from the mixture of dioctadecyl-dimethylammonium bromide (DDAB, Sigma, USA) and DOPE in the weight ratio 1:2.5 dissolved in distilled water at concentration of 3 mg/ml with brief sonication. All lipid solutions were sterilized by filtration though 0.2 micrometer cellulase acetate filter, unless supplied sterile by manufacturers.
Human epidermoid carcinoma (KB31) cells were grown at 37° C. and 5% CO2 in RPMI 1640 medium supplemented with 10% heat-inactivated fetal calf serum. The cells were plated into a 12-well cell culture plate at 1.5×10^5 cells/well in 1 ml of the growth medium. After a 24 hour acclimation period, 1 microgram of bacterial plasmid (pUC-CMVLUC) with luciferase reporter gene under control of the CMV promoter was added to the cell media, either alone, or in the complex with cationic lipids as indicated below, prepared at a variety of lipid-to-DNA ratios. The complexes were prepared by mixing the lipid, as supplied by the manufacturer, and 1 microgram of the plasmid in 40 microliters of HEPES-NS. […]

C26 cells = experiment: Delivery of bacterial plasmid into mouse colon carcinoma C26 cells, luciferase expression (Table 3); type: cell-based
Description: as §1
Mouse colon carcinoma cells (C26) were grown, incubated with plasmid pCMVLUC in the presence of Arg-PE or commercially available cationic lipids, and assayed for luciferase expression as described in Example 5 above.

NCI-H1048 cells [2] = experiment: Delivery of bacterial plasmid into human extrapulmonary small cell carcinoma NCI-H1048 cells, luciferase expression (Table 4); type: cell-based
Description: as §1
The cells were plated into a 12-well cell culture plate at 1.5×10^5 cells/well in 1 ml of the growth medium. After a 24 hour acclimation period, 1 microgram of bacterial plasmid (pUC-CMVLUC) with luciferase reporter gene under control of the CMV promoter was added to the cell media, either alone, or in the complex with cationic lipids as indicated below, prepared at a variety of lipid-to-DNA ratios. The complexes were prepared by mixing the lipid, as supplied by the manufacturer, and 1 microgram of the plasmid in 40 microliters of HEPES-NS. […]

NCI-H1048 cells [3] = experiment: Uptake of fluorescein-labeled 24-mer phosphorothioate oligonucleotide, flow cytometry (Table 2); type: cell-based, human; conditions: for Total uptake: mean cell fluorescence / Uptake increase over oligo alone: oligonucleotide 0.5 micro-M
Description: Human small cell lung carcinoma cells (NCI-H1048) were grown in RPMI-1640 medium with 10% heat-inactivated fetal calf serum. The cells were exposed for 7 hours in a serum-free medium with a fluorescein-labeled 24-mer phosphorothioate oligonucleotide (0.5 micro-M final concentration), alone or in a complex with lipids obtained as described in Examples 2 and 3. Then the equal volume of serum-supplemented medium was added, and the cells were incubated for another 18 hours. After incubation, cellular accumulation of the oligonucleotide was assayed by flow cytometry using fluorescein label fluorescence.

NCI-A549 cells = experiment: Uptake of fluorescein-labeled 18-mer phosphorothioate oligonucleotide (F-ON), fluorescence microscopy; type: cell-based, human; conditions: oligonucleotide/lipid weight ratio 1:12, 24 hours, 37° C.
Description: Human lung adenocarcinoma cells (NCI-A549, American Type Culture Collection) were grown on Permanox® chamber slides in […] medium supplemented with 10% fetal calf serum (R-10) at 37° C. and 5% CO2. 4 micrograms of fluroscein-labeled 18-mer phosphorothioate oligonucleotide (F-ON) in 0.1 ml of HEPES-buffered saline (20 mM hydroxyethylpiperazine-ethane sulfonic acid (HEPES), 144 mM NaCl, pH 7.4) were mixed with Arg-PE formulated as described in Example 2, at the weight ratio of oligonucleotide to the lipid of 1:12. After 30 minutes of incubation, the mixture was made up to 2 mi with R-10 and added to the cells. After 24 hours incubation at 37° C., 5% CO2, the medium was aspirated, the cells washed 4 times with HEPES-buffered balanced salt solution, and immediately examined through a fluorescence microscope. […] Accumulation of the oligonucleotide in NCI-A549 cells, incubated with F-ON under the same conditions, but in the absence of Arg-PE, was undetectable.

KB31 cells [4] = experiment: Toxicity of lipids alone or in complex with plasmid for cultured cells, MTT assay; type: cell-based, human; conditions: for Toxicity in the studied range of concentrations efficient for gene delivery: cultured human cells, alone or in combination with DNA
Description: Lipids alone, or in the complex with pUC-CMVLUC plasmid at the indicated ratio were added to the cell medium at concentrations of 3.2-100 microgram of lipid per 1 ml of growth medium. After 24 hours exposure to the lipids, the lipid-containing media were removed, and the cells were further incubated in fresh growth medium for 65 hours. At the end of incubations, the cell viability was determined by MTT assay as described in T. Mossman 65 J. Immunol.

living cells = experiment: Delivery of functional plasmid DNA and phosphorothioate oligonucleotide into living cells (summary comparison); type: cell-based
Text: We have tested Arg-PE for its ability to deliver functional plasmid DNA and phosphorothioate oligonucleotide (PS ON) into living cells. […] Helper lipids are required for the activity of previously known monocationic lipids.

[5] = pUC-CMVLUC, maximum over a range of plasmid/lipid ratios

For `CCCCCCCC/C=C\CCCCCCCC(=O)OC[C@H](COP(=O)(O)OCCNC(=O)[C@@H](N)CCCNC(=N)N)OC(=O)CCCCCCC/C=C\CCCCCCCC` [Arg-PE, N-Arginyl-dioleoylphosphatidylethanolamine], the Maximum luciferase activity (KB31 cells [1]) was 8.25 × 10^6 RLU/mg protein, the “Plasmid delivery compared with other cationic lipids” value (C26 cells) was “more effective for the plasmid delivery into C26 cells than other monocationic lipids and as effective as the polycationic lipid Transfectam®” and the Maximum luciferase activity (C26 cells; [5]) was 9.02 × 10^7 RLU/mg protein. The “Plasmid delivery compared with Transfectam” value (NCI-H1048 cells [2]) was “as effective for the plasmid delivery into NCI-H1048 cells as a polycationic Transfectam®”, the Maximum luciferase activity (NCI-H1048 cells [2]; [5]) was 3.21 × 10^5 RLU/mg protein and the “Enhancement of oligonucleotide uptake compared with commercial cationic lipids” value (NCI-H1048 cells [3]; NCI-H1048 cells) was “enhanced the uptake of the oligonucleotide by the cells at least as effectively as the tested commercial cationic lipids”. The “Total uptake: mean cell fluorescence” value (NCI-H1048 cells [3]; oligo/lipid ratio 1:3) was 2.97 relative units, the “Uptake increase over oligo alone” value (NCI-H1048 cells [3]; oligo/lipid ratio 1:3) was 4.26 times and the “Total uptake: mean cell fluorescence” value (NCI-H1048 cells [3]; oligo/lipid ratio 1:6) was 4.08 relative units. The “Uptake increase over oligo alone” value (NCI-H1048 cells [3]; oligo/lipid ratio 1:6) was 5.85 times, the “Cells showing nuclear fluorescence and cytoplasmic deposits of fluorescent material” value (NCI-A549 cells) was 100% and the “Microscopic appearance (intracellular distribution of F-ON)” value (NCI-A549 cells) was “bright green nuclear fluorescence and substantial cytoplasmic deposits of granular fluorescent material”. For the same compound, the “Toxicity compared with commercial lipids (MTT viability)” value (KB31 cells [4]; 3.2-100 microgram lipid per ml, 24 hours exposure, lipid as such or DNA-lipid complexes) was “displayed the least toxicity”, the “Toxicity in the studied range of concentrations efficient for gene delivery” value (KB31 cells [4]) was “no detectable toxicity” and the “Efficiency of DNA delivery compared with DOGS” value (living cells) was “superior to that of a polycationic lipid, DOGS”. The “Efficiency of cellular delivery of DNA and PS ON versus commercial materials” value (living cells) was “higher efficiency of the cellular delivery of DNA and PS ON” and the “DNA delivery activity without helper lipid” value (living cells; without the use of a "helper lipid") was “highly active for the DNA delivery into the cells even without the use of a "helper lipid"”.

`CCCCCCCCCCCCCCCCCCN(CCCCCCCCCCCCCCCCCC)C(=O)CNC(=O)C(CCCNCCCN)NCCCN` (stereo not drawn) [DOGS, reference compound] was tested, and the “Toxicity in the studied range of concentrations efficient for gene delivery” value (KB31 cells [4]) was “no detectable toxicity”.
